Assay [1] addresses UDP-N-acetylglucosamine 1-carboxyvinyltransferase (Escherichia coli K-12, UniProt P0A749). The experiment in a line: Inhibition of Escherichia coli K12 Mur A in presence of UNAG.
The target of assay [2] is UDP-N-acetylglucosamine 1-carboxyvinyltransferase (Pseudomonas aeruginosa (strain ATCC 15692 / PAO1 / 1C / PRS 101 / LMG12228), UniProt Q9HVW7). The experiment in a line: Inhibition of Pseudomonas aeruginosa PAO1293 MurA in presence of UNAG.
Assay [3] concerns UDP-N-acetylglucosamine 1-carboxyvinyltransferase (Escherichia coli K-12), P0A749 [C115D]. The experiment in a line: Inhibition of Escherichia coli K12 Mur A C115D at 50 uM in presence of UNAG.
Assay [4] is described as follows: Inhibition of MurA at 5 uM. Particulars: TDE = time-dependent effect.
A short description of assay [5]: Inhibition of MurA at 10 uM. The settings on record: TDE = time-dependent effect.

Activity calls are given as the source filed them. The calls are words filed in the database; no cut-off is given here.

Chain of UDP-N-acetylglucosamine 1-carboxyvinyltransferase (Escherichia coli K-12), P0A749 [C115D] (P0A749 whole entry C115D): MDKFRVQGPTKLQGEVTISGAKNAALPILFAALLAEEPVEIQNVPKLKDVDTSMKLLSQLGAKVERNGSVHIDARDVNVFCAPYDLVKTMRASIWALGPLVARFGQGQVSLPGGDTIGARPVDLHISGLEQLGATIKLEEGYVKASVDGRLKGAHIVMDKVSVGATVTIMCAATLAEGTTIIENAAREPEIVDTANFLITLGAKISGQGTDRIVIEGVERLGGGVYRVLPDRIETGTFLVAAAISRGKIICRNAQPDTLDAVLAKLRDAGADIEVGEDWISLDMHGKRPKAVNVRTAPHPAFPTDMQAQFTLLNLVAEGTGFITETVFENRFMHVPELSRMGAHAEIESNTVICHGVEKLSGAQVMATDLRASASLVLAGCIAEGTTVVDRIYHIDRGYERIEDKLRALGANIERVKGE
Chain of UDP-N-acetylglucosamine 1-carboxyvinyltransferase (Escherichia coli K-12, UniProt P0A749) (P0A749 whole entry): as the sequence (P0A749 whole entry C115D) above, with D115C counted along it
Chain of UDP-N-acetylglucosamine 1-carboxyvinyltransferase (Pseudomonas aeruginosa (strain ATCC 15692 / PAO1 / 1C / PRS 101 / LMG12228), UniProt Q9HVW7) (Q9HVW7 whole entry): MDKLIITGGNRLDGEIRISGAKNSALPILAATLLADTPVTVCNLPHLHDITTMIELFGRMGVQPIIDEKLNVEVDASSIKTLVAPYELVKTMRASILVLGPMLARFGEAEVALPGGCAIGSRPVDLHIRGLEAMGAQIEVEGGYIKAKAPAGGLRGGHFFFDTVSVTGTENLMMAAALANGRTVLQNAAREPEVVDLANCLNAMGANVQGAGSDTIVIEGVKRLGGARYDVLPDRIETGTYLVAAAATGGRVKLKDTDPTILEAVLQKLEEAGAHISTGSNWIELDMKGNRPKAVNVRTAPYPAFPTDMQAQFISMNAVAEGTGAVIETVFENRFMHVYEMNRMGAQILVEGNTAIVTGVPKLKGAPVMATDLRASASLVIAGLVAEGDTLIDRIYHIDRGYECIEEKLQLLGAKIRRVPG

The IC50 is the concentration that gives 50% inhibition. With `C=C1C(=O)O[C@@H]2[C@@H]1CC[C@]1(C)CCC=C(C)[C@@H]21`, the IC50 in assay [1] and in assay [2] was greater than 50 µM each time. The result in assay [3] was inactive.
`C=C1C(=O)O[C@@H]2C3O[C@]3(C)CC/C=C(\C)CC[C@@H]12` (some centres undefined): the IC50 in assay [1] was greater than 50 µM; in assay [2], 27.8 µM. In assay [3], the outcome was inactive.
For `C=C1C(=O)O[C@@H]2/C=C(\C)CC/C=C(\C)CC[C@@H]12` (stereo in doubt; 7), the result in assay [3] was inactive.
As to `C=C1C(=O)O[C@@H]2/C=C(\C)CC/C=C(\C)CC[C@@H]12` (stereo in doubt; 7) [COSTUNOLIDE], the IC50 in assay [1] and in assay [2] was greater than 50 µM each time.
Regarding `C=C1C(=O)O[C@@H]2/C=C(\C)CC/C=C(\C)CC[C@@H]12` (stereo in doubt; 10), the outcome in assay [3] was inactive.
Consider `C=C1C(=O)O[C@@H]2/C=C(\C)CC/C=C(\C)CC[C@@H]12` (stereo in doubt; 10) [COSTUNOLIDE], for which the IC50 in assay [1] and in assay [2] was greater than 50 µM in each case.
For the compound `C=C1C(=O)O[C@@H]2/C=C(\CO)CC/C=C(\C)C[C@H](OC(=O)C(=C)[C@H](O)CO)[C@@H]12` [CNICIN], the IC50 was determined as 16.7 µM in assay [1] and 10.3 µM in assay [2]. Besides, the outcome in assay [3] was inactive. Further, the Activity entry in assay [4] is “tde”.
Taken in the same sequence, the figures for `C=C(CO)C(=O)O[C@H]1CC(=C)[C@@H]2C[C@H](O)C(=C)[C@@H]2[C@H]2OC(=O)C(=C)[C@@H]21` [CYNAROPICRIN] were 19.5 µM, 12.1 µM, “inactive” and “tde”.
For `C=C1CC[C@H]2C(=C)CC[C@H]3C(=C)C(=O)O[C@@H]3[C@@H]12` [DEHYDROCOSTUSLACTONE], the IC50 in assay [1] and in assay [2] was greater than 50 µM each time. Further, in assay [3], the outcome was inactive.
Consider `C=C1C(=O)O[C@@H]2/C=C(\C)CC/C=C(/C)C[C@@H](OC(=O)/C(=C/CO)CO)[C@@H]12` [EUPATORIOPICRIN], for which the Activity entry in assay [5] is “tde”. For the same compound, the IC50 in assay [1] stood at 32.7 µM; in assay [2], 19.8 µM. Besides, the result in assay [3] was inactive.
As to `C[C@@H]1O[C@@H]1P(=O)(O)O` [FOSFOMYCIN], the IC50 is 0.118 µM in assay [1] and 10.5 µM in assay [2]. Besides, the outcome in assay [3] was inactive. Moreover, in assay [4], the Activity entry is “tde”.
For `C=C1C(=O)O[C@@H]2C[C@@]3(C)CCC[C@H](C)C3=C[C@H]12` [HELENINE], the IC50 in assay [1] and in assay [2] was greater than 50 µM each time. In assay [3], the result was inactive.

Values taken from ChEMBL document CHEMBL1139708, “Sesquiterpene lactones are potent and irreversible inhibitors of the antibacterial target enzyme MurA” (Bioorg Med Chem Lett, 2006).
